Values quoted from earlier work, collected in publication PMC10247525 (Colloids and surfaces. B, Biointerfaces, 2023).
≈ marks a conversion by molar mass, not a printed value. Where “and” joins values, the source holds several entries; their conditions need not be identical. Identical values can stand only once.

Assays:
[1] = cited from earlier work
[2] = cited from earlier work; remark: listed apart in the source
[3] = cited from earlier work; remark: listed apart in the source

SMILES | solubility in water [1] | solubility in methanol [2] | logP (octanol/water) [3]
O=c1[nH]cc(F)c(=O)[nH]1 [5-Fluorouracil] | 12.5 mg/ml and 96 mM | 18 mg/mL (≈ 138 mM) | 
COc1cccc2c1C(=O)c1c(O)c3c(c(O)c1C2=O)C[C@@](O)(C(=O)CO)C[C@@H]3O[C@H]1C[C@H](N)[C@H](O)[C@H](C)O1 [Doxorubicin] | 52 mg/ml and 90 mM | sparingly | 
CC(=O)O[C@H]1C(=O)[C@@]2(C)[C@H]([C@H](OC(=O)c3ccccc3)[C@]3(O)C[C@H](OC(=O)[C@H](O)[C@@H](NC(=O)c4ccccc4)c4ccccc4)C(C)=C1C3(C)C)[C@]1(OC(C)=O)CO[C@@H]1C[C@@H]2O [Paclitaxel] | sparingly | 50 mg/mL (≈ 58.6 mM) | 4
